Experimental data published in patent US11236055B2 (Venenum Biodesign, LLC, priority 2016, dated 2022).

Legend:
[1] = target: T1, human TGR5 receptor (Homo sapiens, UniProt Q8TDU6); assay: Human TGR5 cAMP production assay; type: cell-based; settings: human TGR5, luminescent cAMP assay; coded A-D; read-out: Human TGR5 Lum. cAMP Activity (EC50)
T1 construct: host or cells: CHO-K1 (hTGR5-CHO cells)
T1 sequence (Q8TDU6 1-330): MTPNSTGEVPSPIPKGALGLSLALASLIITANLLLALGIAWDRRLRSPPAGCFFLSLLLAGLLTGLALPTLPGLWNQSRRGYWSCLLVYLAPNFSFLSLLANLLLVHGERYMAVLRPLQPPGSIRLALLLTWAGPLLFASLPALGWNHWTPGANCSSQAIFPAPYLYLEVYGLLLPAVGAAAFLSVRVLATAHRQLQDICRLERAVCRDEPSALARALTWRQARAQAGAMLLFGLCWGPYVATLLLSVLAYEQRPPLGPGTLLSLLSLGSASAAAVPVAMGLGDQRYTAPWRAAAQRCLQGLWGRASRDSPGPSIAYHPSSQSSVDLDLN
Summary of the method: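 CHO-K1 cells stably expressing human TGR5, with IBMX and cAMP antibody, were exposed to half-log serially diluted compound for 1 h at room temperature. cAMP measured by enzyme-fragment complementation luminescence (XS+ kit) after overnight incubation; EC50 values reported.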

[2] = target: T2, mouse TGR5 receptor (Mus musculus, UniProt Q80SS6); assay: Mouse TGR5 cAMP production assay (HTRF, Cisbio cAMP HiRange); type: cell-based; settings: HEK293-EBNA cells overexpressing mouse TGR5, HTRF cAMP HiRange; coded A-D
T2 construct: expressed in transfected cells; host or cells: HEK293-EBNA (293 c18, ATCC CRL10852), Hygromycin B selection
T2 sequence (Q80SS6 1-329): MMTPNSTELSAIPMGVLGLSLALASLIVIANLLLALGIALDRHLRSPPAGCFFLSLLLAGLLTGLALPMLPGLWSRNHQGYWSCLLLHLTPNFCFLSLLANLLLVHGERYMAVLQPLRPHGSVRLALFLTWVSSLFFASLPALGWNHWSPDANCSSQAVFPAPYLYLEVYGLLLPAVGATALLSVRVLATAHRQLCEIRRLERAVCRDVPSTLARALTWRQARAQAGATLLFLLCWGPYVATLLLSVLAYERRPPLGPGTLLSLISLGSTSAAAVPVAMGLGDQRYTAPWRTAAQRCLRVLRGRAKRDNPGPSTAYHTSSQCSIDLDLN
Summary of the method: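 cAMP read by HTRF competition after 1 h room-temperature compound exposure of mouse TGR5-overexpressing HEK293-EBNA cells. Cells were suspended in serum-free DMEM containing 500 μM IBMX; compounds ran as 12-point half-log dilutions in duplicate; EC50 derived.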

| EC50 [1] [nM] | EC50 [2] [nM] | Compound |
| --- | --- | --- |
| 1000 to 30000 | > 30000 | Cc1cnsc1-c1cccc([C@H](C)NS(=O)(=O)c2cccc(Cl)c2C)c1 [Compound 7AA, (S)-3-chloro-2-methyl-N-(1-(3-(4-methylisothiazol-5-yl)-phenyl)ethyl)benzenesulfonamide] |
| 100 to 999 | 1000 to 30000 | CC(C)(NS(=O)(=O)c1cccc(C(F)(F)F)c1)c1cccc(-c2ccc3nccn3c2)c1 [Compound 5AF, N-(2-(3-(imidazo[1,2-a]pyridin-6-yl)phenyl)propan-2-yl)-3-(trifluoromethyl)benzenesulfonamide] |
| < 100 | < 100 | COc1cnccc1-c1cccc(C(C)(C)NS(=O)(=O)c2cc(Cl)ccc2[N+](=O)[O-])c1 [Compound 2BH] |
| 100 to 999 | 100 to 999 | Cc1cnccc1-c1cccc([C@H](CCCC(=O)O)NS(=O)(=O)c2ccccc2C(F)(F)F)c1 [Compound 19AA, (S)-5-(3-(3-methylpyridin-4-yl)phenyl)-5-(2-(trifluoromethyl)phenylsulfonamido) pentanoic acid] |
| < 100 | 1000 to 30000 | Cc1cnccc1-c1cccc([C@@H](C)N(CCCC(=O)NCCS(=O)(=O)O)S(=O)(=O)c2cccc(Cl)c2C)c1 [Compound 21AP, (R)-2-(4-(3-Chloro-2-methyl-N-(1-(3-(3-methylpyridin-4-yl)phenyl)ethyl)phenylsulfonamido)butanamido)ethane-sulfonic acid] |
| 100 to 999 | 100 to 999 | Cc1cnccc1-c1cccc([C@H](CCCC#N)N(CCCC(=O)O)S(=O)(=O)c2cccc(Cl)c2C)c1 [Compound 15AD, (S)-4-(3-chloro-N-(4-cyano-1-(3-(3-methylpyridin-4-yl)phenyl)butyl)-2-methylphenylsulfonamido) butanoic acid] |
| 100 to 999 | 1000 to 30000 | CC(C)(NS(=O)(=O)c1ccccc1C(F)(F)F)c1cccc(-c2ccc3nccn3c2)c1 [Compound 5AJ, N-(2-(3-(imidazo[1,2-a]pyridin-6-yl)phenyl)propan-2-yl)-2-(trifluoromethyl)benzenesulfonamide] |
| < 100 | < 100 | Cc1cnccc1-c1cccc(C(C)(C)N(CCCC(=O)N[C@H](C)C(=O)O)S(=O)(=O)c2cccc(Cl)c2C)c1 [Compound 21AE, (R)-2-(4-(3-chloro-2-methyl-N-(2-(3-(3-methylpyridin-4-yl)phenyl)propan-2-yl)phenylsulfonamido)butanamido)propanoic acid] |
| < 100 | 100 to 999 | Cc1cnccc1-c1cccc([C@H](C)N(CCCCC(=O)NC[C@@H](O)[C@H](O)[C@@H](O)[C@@H](O)CO)S(=O)(=O)c2cccc(Cl)c2C)c1 [Compound 20AI, 5-(3-chloro-2-methyl-N-((S)-1-(3-(3-methylpyridin-4-yl)phenyl)ethyl)phenylsulfonamido)-N-((2R,3S,4S,5S)-2,3,4,5,6-pentahydroxyhexyl)pentanamide] |
| 1000 to 30000 | 1000 to 30000 | Cc1cncnc1-c1cccc(C(C)(C)NS(=O)(=O)c2ccccc2C(F)(F)F)c1 [Compound 6AA, N-(2-(3-(5-methylpyrimidin-4-yl)phenyl)propan-2-yl)-2-(trifluoromethyl)benzenesulfonamide] |
| 100 to 999 | < 100 | Cc1c(Cl)cccc1S(=O)(=O)N(CCCC(=O)NCCS(=O)(=O)NCC(=O)O)[C@@H](C)c1cccc(-c2ccncc2CO)c1 [Compound 20BS, (S)-2-(4-(3-chloro-N-(1-(3-(3-(hydroxymethyl)pyridin-4-yl)phenyl)ethyl)-2-methylphenylsulfonamido)butanamido)ethanesulfonamido acetic acid] |
| < 100 | 100 to 999 | Cc1cnccc1-c1cccc([C@H](C)N(CCCC(=O)NC[C@@H](O)[C@H](O)[C@@H](O)[C@@H](O)CO)S(=O)(=O)c2cccc(Cl)c2C)c1 [Compound 20AK, 4-(3-chloro-2-methyl-N-((S)-1-(3-(3-methylpyridin-4-yl)phenyl)ethyl)phenylsulfonamido)-N-((2R,3S,4S,5S)-2,3,4,5,6-pentahydroxyhexyl)butanamide] |
| 1000 to 30000 | 1000 to 30000 | Cc1ccc(S(=O)(=O)NC(CCCCC#N)c2cccc(-c3ccncc3C)c2)nc1 (stereo not drawn) [Compound 35B, N-(5-cyano-1-(3-(3-methylpyridin-4-yl)phenyl)pentyl)-5-methylpyridine-2-sulfonamide] |
| 100 to 999 | 100 to 999 | Cc1cnccc1-c1cccc([C@H](CC(=O)N(C)C)NS(=O)(=O)c2ccccc2C(F)(F)F)c1 [Compound 5BB, (S)-N,N-dimethyl-3-(3-(3-methylpyridin-4-yl)phenyl)-3-(2-(trifluoromethyl)phenylsulfonamido)propanamide] |
| 100 to 999 | 1000 to 30000 | Cc1cnccc1-c1cccc([C@H](CCCC#N)N(CCCC(=O)OC(C)(C)C)S(=O)(=O)c2cccc(Cl)c2C)c1 [Compound 15AC, (S)-tert-butyl 4-(3-chloro-N-(4-cyano-1-(3-(3-methylpyridin-4-yl)phenyl)butyl)-2-methylphenylsulfonamido) butanoate] |
| < 100 | 100 to 999 | COc1cnccc1-c1cccc(C(C)(C)NS(=O)(=O)c2ccc(F)cc2C(F)(F)F)c1 [Compound 2BD] |
| 100 to 999 | < 100 | Cc1cnccc1-c1cccc(C2CN(C(=O)CCC(=O)O)CCN2S(=O)(=O)c2cccc(Cl)c2Cl)c1 (stereo not drawn) [Compound 46AK, 4-(4-((2,3-dichlorophenyl)sulfonyl)-3-(3-(3-methylpyridin-4-yl)phenyl)piperazin-1-yl)-4-oxobutanoic acid] |

The remaining lines, values behind:

| Compound | EC50 [1] [nM] | EC50 [2] [nM] |
| --- | --- | --- |
| Cc1cnccc1-c1cccc([C@H]2C[C@@H](C(=O)O)CCN2S(=O)(=O)c2ccccc2C(F)(F)F)c1 (relative stereo) [Compound 55, cis-2-(3-(3-Methylpyridin-4-yl)phenyl)-1-((2-(trifluoromethyl)phenyl)sulfonyl)piperidine-4-carboxylic acid] | 100 to 999 | 100 to 999 |
| CCc1cnccc1-c1cc(O)cc(C(C)(C)NS(=O)(=O)c2ccccc2C(F)(F)F)c1 [Compound 22, N-(2-(3-(3-Ethylpyridin-4-yl)-5-hydroxyphenyl)propan-2-yl)-2-(trifluoromethyl)benzenesulfonamide] | < 100 | < 100 |
| Cc1cnccc1-c1cccc(C(C)N(CCNc2c(NCS(=O)(=O)O)c(=O)c2=O)S(=O)(=O)c2cccc(Cl)c2C)c1 (stereo not drawn) [Compound 32, 2-((2-((2-(3-chloro-2-methyl-N-(1-(3-(3-methylpyridin-4-yl)phenyl)ethyl)phenylsulfonamido)ethyl)amino)-3,4-dioxocyclobut-1-en-1-yl)amino)methanesulfonic acid] | 1000 to 30000 | 1000 to 30000 |
| COC(=O)c1cnccc1-c1cccc(C(C)(C)NS(=O)(=O)c2ccccc2C(F)(F)F)c1 [Compound 6, Methyl 4-(3-(2-(2-(trifluoromethyl)phenylsulfonamido)propan-2-yl)phenyl)nicotinate] | < 100 | 1000 to 30000 |
| Cc1cnccc1-c1cccc(C2CNCCN2S(=O)(=O)c2ccccc2C(F)(F)F)c1 (racemic) [Compound 44, (+/−) 2-(3-(3-methylpyridin-4-yl)phenyl)-1-((2-(trifluoromethyl)phenyl)sulfonyl)piperazine] | 100 to 999 | 100 to 999 |
| COC(=O)C(NS(=O)(=O)c1cccc(C(F)(F)F)c1)c1cccc(-c2ccncc2OC)c1 (stereo not drawn) [Compound 1CE] | 1000 to 30000 | 1000 to 30000 |
| Cc1cnccc1-c1cccc(C(C)(C)N(CCCC(=O)NCCN)S(=O)(=O)c2cccc(Cl)c2C)c1 [Compound 21, N-(2-Aminoethyl)-4-(3-chloro-2-methyl-N-(2-(3-(3-methylpyridin-4-yl)phenyl)propan-2-yl)-phenylsulfonamido)butanamide] | < 100 | 100 to 999 |
| COc1cnccc1-c1cc(CNS(=O)(=O)c2cccc(C(F)(F)F)c2)ccn1 [Compound 1BS] | 1000 to 30000 | 1000 to 30000 |
| Cc1cnccc1-c1cccc([C@H](C)N(CCCCN)S(=O)(=O)c2ccccc2C(F)(F)F)c1 [Compound 24, (S)—N-(4-aminobutyl)-N-(1-(3-(3-methylpyridin-4-yl)phenyl)ethyl)-2-(trifluoromethyl)Benzenesulfonamide] | < 100 | 1000 to 30000 |
| Cc1cnccc1-c1cccc([C@H](C)N(CCCCC(=O)NCCOCCNC(=O)CS(=O)(=O)O)S(=O)(=O)c2cccc(Cl)c2C)c1 [Compound 31, (S)-15-((3-chloro-2-methylphenyl)sulfonyl)-16-(3-(3-methylpyridin-4-yl)phenyl)-2,10-dioxo-6-oxa-3,9,15-triazaheptadecane-1-sulfonic acid] | < 100 | < 100 |
